Measured values published in PMC6016474, “Structural and functional determination of homologs of the Mycobacterium tuberculosis N-acetylglucosamine-6-phosphate deacetylase (NagA)” (The Journal of Biological Chemistry, 2018).

What was measured:
MMNagA = target: T1, MMNagA (Mycobacterium marinum, UniProt B2HDT2); conditions: read-out: MST Kd; binder
T1 construct: gene nagA; full-length from gDNA, N-terminal His6 tag (pET28a, NdeI/HindIII), E. coli BL21(DE3) with Mtb GroES chaperone

MSNagA = target: T2, MSNagA (Mycolicibacterium smegmatis, UniProt A0QU89, D267A); test: X-ray co-crystal structure, […] Å; format: binding; conditions: active site of chain A at dimer interface, Zn and Cd modelled, ligand occupancy 0.75
T2 construct: gene nagA; full-length, 385 residues, N-terminal His6 tag; expressed in M. smegmatis mc2 4517 (pYUB1062) for wild-type rows, in E. coli (pET28a) for D267A
T2 sequence (A0QU89 1-385 D267A): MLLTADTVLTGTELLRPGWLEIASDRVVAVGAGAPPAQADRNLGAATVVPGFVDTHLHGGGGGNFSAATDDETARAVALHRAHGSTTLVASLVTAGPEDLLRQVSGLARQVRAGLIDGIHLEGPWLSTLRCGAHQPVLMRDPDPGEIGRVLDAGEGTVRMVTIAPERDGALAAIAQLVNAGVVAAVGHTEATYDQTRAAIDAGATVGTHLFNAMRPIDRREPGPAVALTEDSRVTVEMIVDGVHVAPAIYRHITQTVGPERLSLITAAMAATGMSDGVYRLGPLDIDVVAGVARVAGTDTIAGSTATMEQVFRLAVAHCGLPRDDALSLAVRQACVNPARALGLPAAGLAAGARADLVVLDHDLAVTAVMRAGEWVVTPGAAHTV

T1 sequence (B2HDT2 entry or part of it): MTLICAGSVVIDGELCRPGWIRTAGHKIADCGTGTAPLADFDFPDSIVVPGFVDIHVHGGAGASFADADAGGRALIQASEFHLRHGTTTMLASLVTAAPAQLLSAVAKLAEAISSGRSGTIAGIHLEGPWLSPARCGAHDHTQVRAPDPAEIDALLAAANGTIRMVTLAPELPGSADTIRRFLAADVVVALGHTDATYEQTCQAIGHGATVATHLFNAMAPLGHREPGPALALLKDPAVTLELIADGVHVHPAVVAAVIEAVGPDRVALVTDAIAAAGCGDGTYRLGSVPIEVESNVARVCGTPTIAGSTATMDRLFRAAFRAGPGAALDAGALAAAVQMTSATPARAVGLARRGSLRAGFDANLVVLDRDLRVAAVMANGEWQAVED

| Structure (SMILES) | Kd (MMNagA) | X-ray co-crystal structure, 2.0 Å (MSNagA) |
| --- | --- | --- |
| CC(=O)N[C@@H]1C(O)O[C@H](COP(=O)(O)O)[C@@H](O)[C@@H]1O (stereo partly drawn) [ManNAc6P] | 3.8 ± 0.3 mM |  |
| CC(=O)N[C@H]1C(O)O[C@H](COP(=O)(O)O)[C@@H](O)[C@@H]1O (stereo partly drawn) [GlcNAc6P] | 1.2 ± 0.05 mM | 6FV4 for the GlcNAc6P-MSNagA co-crystal structure |
